# In ChEMBL document CHEMBL5725267, “Enhancer of zeste homolog 2 inhibitors” (2016):
# Assay: Scintillation Proximity Assay (SPA): Protocol 2: Compounds contained herein were evaluated for their ability to inhibit the methyltransferase activity of EZH2 within the PRC2 complex. Human PRC2 complex was prepared by co-expressing each of the 5 member proteins (FLAG-EZH2, EED, SUZ12, RbAp48, AEBP2) in Sf9 cells followed by co-purification. Enzyme activity was measured in a scintillation proximity assay (SPA) where a tritiated methyl group is transferred from 3H-SAM to a lysine residue on a biotinylated, unmethylated peptide substrate derived from histone H3. The peptides were captured on streptavidin-coated SPA beads and the resulting signal was read on a ViewLux plate reader.Part A. Compound Preparation 4. Prepare 10 mM stock of compounds from solid in 100% DMSO. 5. Set up an 11-point serial dilution (1:4 dilution, top concentration 10 mM) in 100% DMSO for each test compound in a 384 well plate leaving columns 6 and 18 for DMSO controls. 6. Dispense 10 nL of compound from the dilution plate into reaction plates (Corning, 384-well polystyrene NBS, Cat#3673). Percent inhibition was calculated relative to the DMSO control for each compound concentration and the resulting values were fit using standard IC50 fitting parameters within the ABASE data fitting software package.
# Assay type: biochemical
row,Structure (SMILES),IC50
1,C/C=C(/c1scc(C(=O)NCc2c(C)cc(C)[nH]c2=O)c1C)[C@H]1CC[C@H](NC(=O)OC(C)(C)C)CC1,100 nM
2,C/C=C(\CCN1CCOCC1)c1scc(C(=O)NCc2c(C)cc(C)[nH]c2=O)c1C,1000 nM
3,C/C=C(\CCCN1CCC(N(C)C)CC1)c1scc(C(=O)NCc2c(C)cc(C)[nH]c2=O)c1C,200 nM
4,C/C=C(\CCCN1CCN(C)CC1)c1scc(C(=O)NCc2c(C)cc(C)[nH]c2=O)c1C,251 nM
